Test results taken from ChEMBL document CHEMBL4390689 (Bioorg Med Chem Lett, 2019).
pIC50: −log10 of the molar value. Active and inactive are the calls of the source. The rule behind the calls is not given here.

Legend:
[1] = molecular target: Tubulin (Sus scrofa) (UniProt P02554+P02550); assay: Competitive displacement of BODIPY-VBL from porcine brain tubulin at 1.8 uM in presence of GTP by fluorescence method relative to control
[2] = system: HCT-116; assay: Growth inhibition of human HCT116 cells measured after 72 hrs by phosphatase assay; format: functional, cell-based; conditions: HCT-116, 72 h
[3] = system: HCT-116/VM46; assay: Growth inhibition of human HCT116/VM46 cells measured after 72 hrs by phosphatase assay; format: functional, cell-based; conditions: HCT-116/VM46, 72 h
[4] = species: Bos taurus; assay: Inhibition of bovine microtubule polymerization at 143 nM and measured upto 5000 sec by tubulin polymerisation assay
[5] = system: L1210; assay: Growth inhibition of mouse L1210 cells measured after 72 hrs by phosphatase assay; format: functional, cell-based; conditions: L1210, 72 h
[6] = species: Bos taurus; assay: Inhibition of bovine microtubule polymerization at 143 pM and measured upto 5000 sec by tubulin polymerisation assay
[7] = system: HeLa; assay: Induction of mitotic arrest in human HeLa cells after 24 hrs by immunofluorescence based confocal microscopy relative to control; format: functional, cell-based
[8] = species: Bos taurus; assay: Inhibition of bovine microtubule polymerization at 143 uM and measured upto 5000 sec by tubulin polymerisation assay
[9] = system: HeLa; assay: Growth inhibition of human HeLa cells measured after 72 hrs by phosphatase assay; format: functional, cell-based
[10] = system: HeLa; assay: Induction of microtubule disposition in human HeLa cells assessed as detection of gamma tubulin isoform at 10 nM for 20 hrs measured by immunofluorescence method; format: cell-based
[11] = molecular target: T1, Tubulin alpha (Homo sapiens) (UniProt P0DPH7+P68366+Q71U36+P68363+Q9BQE3+Q6PEY2+A6NHL2+Q9NY65); assay: Induction of microtubule disposition in human HeLa cells assessed as detection of alpha tubulin isoform at 10 nM for 20 hrs measured by immunofluorescence method; format: cell-based
[12] = system: HeLa; assay: Potency index, ratio of vinblastine effect to compound effect for Induction of mitotic arrest in human HeLa cells after 24 hrs by immunofluorescence based confocal microscopy relative to control; format: functional
[13] = system: HeLa; assay: Induction of mitotic arrest in human HeLa cells after 24 hrs by immunofluorescence based confocal microscopy relative to vinblastine; format: functional
[14] = molecular target: T2, Tubulin (Homo sapiens) (UniProt P68371+Q9H4B7+P0DPH7+P68366+Q13509+Q71U36+P04350+Q3ZCM7+P07437+P68363+Q9BQE3+Q6PEY2+Q13885+Q9BVA1+Q9BUF5); assay: Induction of microtubule disposition in human HeLa cells assessed as appearance of clumps of tubulin without […] at 500 pM incubated for 20 hrs measured by immunofluorescence method; format: cell-based
[15] = molecular target: Tubulin beta (Homo sapiens) (UniProt P68371+Q9H4B7+Q13509+P04350+Q3ZCM7+P07437+Q13885+Q9BVA1+Q9BUF5+A6NNZ2); assay: Induction of microtubule disposition in human HeLa cells assessed as detection of beta tubulin isoform at 500 nM for 20 hrs measured by immunofluorescence method; format: cell-based
[16] = species: Sus scrofa; assay: Effect on GMPCPP-induced porcine brain microtubule polymerization assessed as catalytic depolymerisation of microtubulin at 2 uM measured upto 30 mins by UV spectrophotometric method
[17] = molecular target: T2, Tubulin (Homo sapiens); assay: Inhibition of GFP tagged human tubulin expressed in human HeLa cells assessed as increase in the ratio of short versus medium and long microtubules after 5 hrs by TIRF super resolution microscopy; format: cell-based
[18] = species: Sus scrofa; assay: Inhibition of paclitaxel-induced porcine brain microtubule polymerization at 2 uM under 4 degreeC measured upto 30 mins by UV spectrophotometric method
[19] = system: HeLa; assay: Induction of microtubule disposition in human HeLa cells assessed as detection of gamma tubulin isoform at 500 nM for 20 hrs measured by immunofluorescence method; format: cell-based
[20] = species: Sus scrofa; assay: Inhibition of GMPCPP-induced porcine brain microtubule polymerization at 2 uM measured upto 30 mins by UV spectrophotometric method
[21] = molecular target: T2, Tubulin (Homo sapiens); assay: Induction of microtubule disposition in human HeLa cells assessed as appearance of multiple clumps of tubulin at 500 pM for 20 hrs measured by immunofluorescence method; format: cell-based
[22] = species: Sus scrofa; assay: Inhibition of GMPCPP-induced porcine brain microtubule polymerization at 2 uM under 4 degreeC measured upto 30 mins by UV spectrophotometric method
[23] = molecular target: T2, Tubulin (Homo sapiens); assay: Inhibition of human GFP tagged tubulin expressed in human HeLa cells assessed as suppression of microtubule dynamics at 500 nM after 5 hrs by TIRF super resolution microscopy; format: cell-based
[24] = molecular target: T1, Tubulin alpha (Homo sapiens); assay: Induction of microtubule disposition in human HeLa cells assessed as detection of alpha tubulin isoform at 500 nM for 20 hrs measured by immunofluorescence method; format: cell-based
[25] = molecular target: T2, Tubulin (Homo sapiens); assay: Inhibition of global microtubule skeleton in human HeLa cells assessed as catastrophic effect on global microtubule skeleton at 75 pM incubated for 20 hrs by Hoechst/[…] staining based confocal microscopy; format: cell-based
[26] = species: Sus scrofa; assay: Inhibition of paclitaxel-induced porcine brain microtubule polymerization at 2 uM measured upto 30 mins by UV spectrophotometric method

Structure (SMILES) | Activity [1] [%] | pIC50 [2] | pIC50 [3] | inhibition [4] | pIC50 [5] | inhibition [6] | inhibition [8] | pIC50 [9] | Activity [16] | inhibition [18] | inhibition [20] | inhibition [22] | inhibition [26] | Activity [7] | also measured
CC[C@]1(NC(=O)N2Cc3ccc(NC(=O)c4cccnn4)cc3C2)C[C@H]2CN(CCc3c([nH]c4ccccc34)[C@@](C(=O)OC)(c3cc4c(cc3OC)N(C)[C@H]3[C@@](O)(C(=O)OC)[C@H](OC(C)=O)[C@]5(CC)C=CCN6CC[C@]43[C@@H]65)C2)C1 | 101 | 10.17 | 9.06 | inactive | 10.23 | inactive |  |  |  |  |  |  |  |  | 
CC[C@]1(O)C[C@@H]2CN(CCc3c([nH]c4ccccc34)[C@@](C(=O)OC)(c3cc4c(cc3OC)N(C)[C@H]3[C@@](O)(C(=O)OC)[C@H](OC(C)=O)[C@]5(CC)C=CCN6CC[C@]43[C@@H]65)C2)C1 [VINBLASTINE] | 31 |  |  |  |  |  | Active | 8.11 |  |  |  |  |  | Dose-dependent effect | Activity [10]: inactive; Activity [11]: Active
CC[C@]1(NC(=O)N2Cc3ccc(NC(=O)c4cnccn4)cc3C2)C[C@H]2CN(CCc3c([nH]c4ccccc34)[C@@](C(=O)OC)(c3cc4c(cc3OC)N(C)[C@H]3[C@@](O)(C(=O)OC)[C@H](OC(C)=O)[C@]5(CC)C=CCN6CC[C@]43[C@@H]65)C2)C1 | 105 | 10.12 | 9.08 | inactive | 10.23 | inactive | Active | 10.08 | inactive | Active | inactive | Active | inactive | Dose-dependent effect | Ratio [12]: 100; fold change (FC) [13]: 100; Activity [14]: Active; Activity [15]: Active; inhibition [17]: Active; Activity [19]: inactive; Activity [21]: Active; inhibition [23]: Active; Activity [24]: Active; inhibition [25]: inactive

Continued, in another order:

Activity [1] [%] | pIC50 [2] | pIC50 [3] | inhibition [4] | pIC50 [5] | inhibition [6] | inhibition [8] | pIC50 [9] | Activity [16] | inhibition [18] | inhibition [20] | inhibition [22] | inhibition [26] | Structure (SMILES) | Activity [7] | also measured
49 |  |  |  |  |  |  |  |  |  |  |  |  | CC[C@]1(NC(=O)N2Cc3ccccc3C2)C[C@H]2CN(CCc3c([nH]c4ccccc34)[C@@](C(=O)OC)(c3cc4c(cc3OC)N(C)[C@H]3[C@@](O)(C(=O)OC)[C@H](OC(C)=O)[C@]5(CC)C=CCN6CC[C@]43[C@@H]65)C2)C1 |  | 
104 | 10.13 | 9.06 | inactive | 10.21 | inactive |  |  | inactive | Active | inactive | Active | inactive | CC[C@]1(NC(=O)N2Cc3ccc(NC(=O)c4ccncn4)cc3C2)C[C@H]2CN(CCc3c([nH]c4ccccc34)[C@@](C(=O)OC)(c3cc4c(cc3OC)N(C)[C@H]3[C@@](O)(C(=O)OC)[C@H](OC(C)=O)[C@]5(CC)C=CCN6CC[C@]43[C@@H]65)C2)C1 |  | 
